Reference: US20050271643A1, “Bacterial strains, compositions including same and probiotic use thereof” (priority 2003, published 2005)
Where two headings read alike, the source gives them in different places.

Key:
B. licheniformis PA = assay: Antibiogram by disc diffusion method; type: cell-based, Bacillus licheniformis
B. subtilis HE = assay: Antibiogram by disc diffusion method; type: cell-based, Bacillus subtilis; conditions: for Zone of inhibition: 6 mm antibiotic discs, Mueller-Hinton plates, 18 hours at 37° C., strain B. subtilis HE
[1] = 6 mm antibiotic discs, Mueller-Hinton plates, 18 hours at 37° C., strain B. licheniformis PA

Compound | Zone of inhibition (B. licheniformis PA; [1]) [mm] | Zone of inhibition (B. subtilis HE) [mm] | Sensitivity or resistance of the strain to the antibiotic (in words) (B. licheniformis PA; strain B. licheniformis PA) | Sensitivity or resistance of the strain to the antibiotic (in words) (B. subtilis HE) | Zone of inhibition (B. licheniformis PA) [mm]
CC1(C)S[C@@H]2[C@H](NC(=O)[C@H](NC(=O)N3CCNC3=O)c3ccccc3)C(=O)N2[C@H]1C(=O)O [Azlocillin] | 16 ± 0.1 | 18 ± 0.2 | – | – | –
O=C(N[C@H](CO)[C@H](O)c1ccc([N+](=O)[O-])cc1)C(Cl)Cl [Chloramphenicol] | 10 ± 0.1 | 16 ± 0.2 | – | – | –
CC1(C)S[C@@H]2[C@H](NC(=O)[C@H](C(=O)O)c3ccsc3)C(=O)N2[C@H]1C(=O)O [Ticarcillin] | 20 ± 0.1 | 24 ± 0.4 | sensitive | sensitive | –
Bactrim | 30 ± 0.1 | 30 ± 0.2 | – | – | –
CCC[C@@H]1C[C@@H](C(=O)N[C@@H]([C@H]2O[C@H](SC)[C@H](O)[C@@H](O)[C@H]2O)[C@H](C)Cl)N(C)C1 [Clindamycin] | 0 | 10 ± 0.3 | – | – | –
CO/N=C(\C(=O)N[C@@H]1C(=O)N2C(C(=O)O)=C(CSc3nc(=O)c(=O)[nH]n3C)CS[C@H]12)c1csc(N)n1 [Ceftriaxon] | 12 ± 0.2 | 18 ± 0.3 | – | – | –
NC[C@H]1O[C@H](O[C@H]2[C@H](O)[C@@H](O[C@H]3O[C@H](CO)[C@@H](O)[C@H](N)[C@H]3O)[C@H](N)C[C@@H]2N)[C@H](O)[C@@H](O)[C@@H]1O [Kanamycin] | 20 ± 0.1 | 23 ± 0.1 | – | – | –
NC[C@H]1O[C@H](O[C@H]2[C@H](O)[C@@H](O[C@H]3O[C@H](CO)[C@@H](O)[C@H](N)[C@H]3O)[C@H](N)C[C@@H]2N)[C@H](N)C[C@@H]1O [Tobramycin] | 20 ± 0.2 | 24 ± 0.3 | – | – | –
Gentamycin | 20 ± 0.1 | 24 ± 0.2 | – | – | –
Cc1onc(-c2ccccc2)c1C(=O)N[C@@H]1C(=O)N2[C@@H]1SC(C)(C)[C@@H]2C(=O)O [Oxacillin] | 0 | 14 ± 0.3 | – | sensitive | –
CC1(C)S[C@@H]2[C@H](NC(=O)[C@H](N)c3ccccc3)C(=O)N2[C@H]1C(=O)O [Ampicillin] | 0 | 10 ± 0.3 | resistant | sensitive | –
CO/N=C(\C(=O)N[C@@H]1C(=O)N2C(C(=O)O)=C(COC(C)=O)CS[C@H]12)c1csc(N)n1 [Cefotaxim] | 10 ± 0.2 | 14 ± 0.2 | – | – | –
C[C@@H](O)[C@H]1C(=O)N2C(C(=O)O)=C(SCCN=CN)C[C@H]12 [Imipenem] | 32 ± 0.3 | 36 ± 0.4 | – | – | –
CC1(C)S[C@@H]2[C@H](NC(=O)Cc3ccccc3)C(=O)N2[C@H]1C(=O)O [Benzylpenicillin] | 0 | 8 ± 0.1 | – | sensitive | –
COc1cc(Cc2cnc(N)nc2N)cc(OC)c1OC [Trimethoprim] | 24 ± 0.1 | 24 ± 0.1 | – | – | –
CO/N=C(\C(=O)N[C@@H]1C(=O)N2C(C(=O)O)=C(COC(N)=O)CS[C@H]12)c1ccco1 [Cefuroxim] | 0 | 0 | resistant | resistant | –
CC(C)(O/N=C(\C(=O)N[C@@H]1C(=O)N2C(C(=O)[O-])=C(C[n+]3ccccc3)CS[C@H]12)c1csc(N)n1)C(=O)O [Ceftazidim] | 0 | 8 ± 0.2 | – | sensitive | –
Cn1nnnc1SCC1=C(C(=O)O)N2C(=O)[C@@H](NC(=O)[C@H](O)c3ccccc3)[C@H]2SC1 [Cefamandol] | 16 ± 0.1 | 37 ± 0.1 | – | – | –

Compound | Zone of inhibition (B. licheniformis PA; [1]) [mm] | Zone of inhibition (B. subtilis HE) [mm] | Sensitivity or resistance of the strain to the antibiotic (in words) (B. licheniformis PA; strain B. licheniformis PA) | Sensitivity or resistance of the strain to the antibiotic (in words) (B. subtilis HE) | Zone of inhibition (B. licheniformis PA) [mm]
Polymyxin E | 0 | 10 ± 0.1 | – | sensitive | –
CCN1CCN(C(=O)N[C@@H](C(=O)N[C@@H]2C(=O)N3[C@@H]2SC(C)(C)[C@@H]3C(=O)O)c2ccccc2)C(=O)C1=O [Piperacillin] | 12 ± 0.1 | 18 ± 0.3 | – | – | –
CN(C)[C@@H]1C(O)=C(C(N)=O)C(=O)[C@@]2(O)C(O)=C3C(=O)c4c(O)cccc4[C@@](C)(O)[C@H]3C[C@@H]12 [Tetracycline] | – | 24 ± 0.3 | – | – | 24 ± 0.2
CC1(C)S[C@@H]2[C@H](NC(=O)[C@H](N)c3ccc(O)cc3)C(=O)N2[C@H]1C(=O)O [Amoxicillin] | 16 ± 0.1 | 18 ± 0.1 | – | – | –
C[C@H]1[C@H](NC(=O)/C(=N\OC(C)(C)C(=O)O)c2csc(N)n2)C(=O)N1S(=O)(=O)O [Aztreonam] | 0 | 0 | – | resistant | –
CN[C@H](CC(C)C)C(=O)N[C@H]1C(=O)N[C@@H](CC(N)=O)C(=O)N[C@H]2C(=O)N[C@H]3C(=O)N[C@H](C(=O)N[C@H](C(=O)O)c4cc(O)cc(O)c4-c4cc3ccc4O)[C@H](O)c3ccc(c(Cl)c3)Oc3cc2cc(c3O[C@@H]2O[C@H](CO)[C@@H](O)[C@H](O)[C@H]2O[C@H]2C[C@](C)(N)[C@H](O)[C@H](C)O2)Oc2ccc(cc2Cl)[C@H]1O [Vancomycin] | – | 12 ± 0.1 | – | – | 12 ± 0.1
NCC[C@H](O)C(=O)N[C@@H]1C[C@H](N)[C@@H](O[C@H]2O[C@H](CN)[C@@H](O)[C@H](O)[C@H]2O)[C@H](O)[C@H]1O[C@H]1O[C@H](CO)[C@@H](O)[C@H](N)[C@H]1O [Amikacin] | 18 ± 0.1 | 20 ± 0.2 | – | – | –
CCN1CCN(C(=O)N[C@@H](C(=O)N[C@@H]2C(=O)N3C(C(=O)O)=C(CSc4nnnn4C)CS[C@H]23)c2ccc(O)cc2)C(=O)C1=O [Cefoperazon] | 12 ± 0.2 | 16 ± 0.1 | – | – | –
CC1(C)S[C@@H]2[C@H](NC(=O)[C@H](NC(=O)N3CCN(S(C)(=O)=O)C3=O)c3ccccc3)C(=O)N2[C@H]1C(=O)O [Mezlocillin] | 17 ± 0.2 | 20 ± 0.3 | – | – | –
O=C1CN(/N=C/c2ccc([N+](=O)[O-])o2)C(=O)N1 [Nitrofurantoin] | 18 ± 0.1 | 16 ± 0.2 | – | – | –
CCn1cc(C(=O)O)c(=O)c2cc(F)c(N3CCNCC3)cc21 [Norfloxacin] | 24 ± 0.2 | 24 ± 0.2 | – | – | –
CO/N=C(\C(=O)N[C@@H]1C(=O)N2C(C(=O)O)=CCS[C@H]12)c1csc(N)n1 [Ceftizoxim] | 0 | 0 | – | – | –
CO[C@@]1(NC(=O)Cc2cccs2)C(=O)N2C(C(=O)O)=C(COC(N)=O)CS[C@@H]21 [Cefoxitin] | 12 ± 0.3 | 16 ± 0.3 | – | – | –
COc1cccc(OC)c1C(=O)N[C@@H]1C(=O)N2[C@@H]1SC(C)(C)[C@@H]2C(=O)O [Methicillin] | 0 | 18 ± 0.1 | resistant | sensitive | –
CC(=O)OCC1=C(C(=O)O)N2C(=O)[C@@H](NC(=O)Cc3cccs3)[C@H]2SC1 [Cephalothin] | 20 ± 0.4 | 32 ± 0.5 | – | – | –
CC1(C)S[C@@H]2[C@H](NC(=O)C(C(=O)O)c3ccccc3)C(=O)N2[C@H]1C(=O)O (stereo partly shown) [Carbenicillin] | 18 ± 0.3 | 24 ± 0.4 | sensitive | sensitive | –
CO[C@@]1(NC(=O)C(C(=O)O)c2ccc(O)cc2)C(=O)N2C(C(=O)O)=C(CSc3nnnn3C)CO[C@@H]21 (stereo partly shown) [Moxalactam] | 12 ± 0.3 | 12 ± 0.3 | – | – | –
